Experimental data: patent US7923204B2, “Forward mutation assay based on 5-fluorouracil resistance” (priority 2003, dated 2011)
Read-outs that look alike come from different tables or passages of the source.

Tests used:
[1] = tested on: FU100
Method: Briefly, in order to practice the disclosed mutation assay one-ml aliquots of exponentially growing bacteria are exposed to the test agent for two hours in the presence and absence of a metabolic activation system, such as a mammalian (i.e., rat, hamster or human) liver homogenate (S9-fraction or liver microsomal enzymes). The aliquots are then diluted, allowed to grow for 3 hours, and assessed for treatment-related toxicity/inhibition by optical density. The cultures are subsequently diluted a second time and grown overnight to permit full recovery from toxicity and to allow expression of the FU^R phenotype. Samples of the cultures are then plated in 384-well microtiter dishes in the presence of 2 μg/ml 5-FU and the pH-sensitive indicator bromcresol purple. Three days later positive wells containing FU^R colonies are detected by their yellow color and enumerated. Treated cultures are then compared to control plates to determine genotoxic activity.
For each mutation experiment, two frozen 1-ml aliquots of FU100 were quickly thawed in a 37° C. water bath, pelleted by centrifugation, washed to remove the DMSO, and suspended in 35 mL of MinE medium. The culture was shaken for approximately 1 hour at 37° C. until the optical density at 600 nm (OD600) reached the target density of 0.3. A 16-ml aliquot of culture was added to each of two 50-ml tubes containing 3.6 ml of a NADPH-generating system (5.6 mM glucose-6-phosphate, 4.5 mM NADP+, 5 mM sucrose, 110 mM Na2HPO4, 37 mM KCl, and 9 mM MgCl2) and either 0.4 ml rat liver S-9 or an equal volume of sodium phosphate buffer. Aliquots of these mixtures were distributed into three 12-well cluster dishes (one for exposure with S-9, one for exposure without S-9, one for controls with and without S-9), and exposed to test compounds as 1-ml aliquots for 2 hour as outlined in FIG. 1.
Following treatment, the 1-ml aliquots were transferred into 9 ml of warm MinE medium in a 50 ml tube and incubated at 37° C. on a rotary wheel for 3 hours. Next, 20 ml of medium was added to each culture tube and 0.25 ml aliquots were transferred to a 96-well plate for OD600 measurements to assess toxicity (OD Day 1). […] Bulk cultures were then incubated overnight in the dark at 30° C. to permit recovery from toxicity and to allow time for the test cells to express the FU^R phenotype.
The next day, OD600 was again assessed to adjust cell number plated on 5-FU plates (OD Day 2; 100 μl of the culture diluted with 150 μl MinE medium for OD600 measurements). For plating, a 35 μl aliquot of each culture was added to 31.4 mL of MinE medium with 2 μg/ml of 5-FU and 10 μg/ml of bromcresol purple. The mixture was then dispersed into a 384-well plate (75 μl/well) and placed at 37° C. for 3 days in a humidified incubator.
The data obtained for both survival (OD day 1), relative number of cells plated (OD day 2), and number of positive wells were imported into an Excel template.
Table 8 summarizes the criteria for positive result in 5-FU assay using the FU100 tester strain described and claimed herein. […] A positive compound was defined when two or more doses met the aforementioned criteria.

[2] = tested on: FU100; settings: approximate, first dose with greater than 50% survival by optical density on Day 1
[3] = tested on: Salmonella; settings: cited from earlier work
[4] = tested on: chromosome aberrations; settings: cited from earlier work
[5] = tested on: sister chromatid exchange; settings: cited from earlier work
[6] = in the presence of S9 activation (+)
[7] = in the presence of S9 activation (+), FU100, 2 h exposure
[8] = without S9 activation (−), FU100, 2 h exposure
[9] = NTP Results Report 12 Aug. 2002 or cited reference (footnotes f, g, i, j)
[10] = in the presence of S9 activation (+), lowest dose tested giving a positive response
[11] = NTP Results Report 12 Aug. 2002
[12] = without S9 activation (−), lowest dose tested giving a positive response

## CC/C(=C(\c1ccccc1)c1ccc(OCCN(C)C)cc1)c1ccccc1 [Tamoxifen]
[1]
  Results (5-FU assay): Neg
[2]; [6]
  LD50: >15 µg/mL
[2]; without S9 activation (−)
  LD50: >3 µg/mL

## CC(O)CCl (centres unmarked) [1-Chloro-2-propanol]
[3]
  NTP Results: SA = Salmonella: (SA+, CA+, SC+)
[1]
  Lowest Positive Dose: 2800 µg/mL
  Results (5-FU assay): Pos^w
[1]; s9
  Results (5-FU assay): Neg
[4]
  NTP Results: CA = chromosome aberrations: (SA+, CA+, SC+)
[5]
  NTP Results: SC = sister chromatid exchange: (SA+, CA+, SC+)

## CCCCCCCCCCCCOS(=O)(=O)[O-].[Na+] [Sodium Dodecyl Sulfate]
[1]; [7]
  Results (5-FU assay): Neg
[1]; [8]
  Results (5-FU assay): Neg
[2]; [6]
  LD50: >35 µg/mL
[2]; without S9 activation (−)
  LD50: >20 µg/mL

## CN(C)N=O [N-Nitrosodimethylamine]
[3]; [9]
  NTP Results: SA = Salmonella: (SA+, CA+, SC+)
[1]; [7]
  Results (5-FU assay): Pos
[1]; [10]
  Lowest Positive Dose: 360 µg/mL
[1]; [8]
  Results (5-FU assay): Neg
[4]; [11]
  NTP Results: CA = chromosome aberrations: (SA+, CA+, SC+)
[5]; [11]
  NTP Results: SC = sister chromatid exchange: (SA+, CA+, SC+)
[2]; [6]
  LD50: >2000 µg/mL
[2]; without S9 activation (−)
  LD50: >2000 µg/mL

## Cc1cccc(Nc2cc(Cl)nc(SCC(=O)O)n2)c1C [Wyeth 14,643]
[3]; [9]
  NTP Results: SA = Salmonella: (SA−)
[1]; [7]
  Results (5-FU assay): Neg
[1]; [8]
  Results (5-FU assay): Neg
[2]; [6]
  LD50: >900 µg/mL
[2]; without S9 activation (−)
  LD50: >900 µg/mL

## O=[N+]([O-])c1cc[n+]([O-])c2ccccc12 [4-Nitroquinoline N-oxide]
[2]; [6]
  LD50: >0.5 µg/mL
[2]; without S9 activation (−)
  LD50: >0.5 µg/mL

## Nc1ccc2cc3ccccc3cc2c1 [2-Aminoanthracene]
[3]; [9]
  NTP Results: SA = Salmonella: +
[1]; [7]
  Results (5-FU assay): Pos
[1]; [10]
  Lowest Positive Dose: 0.2 µg/mL
[1]; [8]
  Results (5-FU assay): Pos
[1]; [12]
  Lowest Positive Dose: 0.6 µg/mL
[5]; [11]
  NTP Results: SC = sister chromatid exchange: +
[2]; [6]
  LD50: >2 µg/mL
[2]; without S9 activation (−)
  LD50: >10 µg/mL

## c1ccc2c(c1)cc1ccc3cccc4ccc2c1c34 [Benzo[a]pyrene]
[2]; [6]
  LD50: >20 µg/mL
[2]; without S9 activation (−)
  LD50: >20 µg/mL

## CC(C)(OOC(C)(C)c1ccccc1)c1ccccc1 [Dicumyl peroxide]
[3]; [9]
  NTP Results: SA = Salmonella: (SA−)
[1]; [7]
  Results (5-FU assay): Neg
[1]; [8]
  Results (5-FU assay): Neg
[2]; [6]
  LD50: >5000 µg/mL
[2]; without S9 activation (−)
  LD50: >5000 µg/mL

## O=[N+]([O-])c1ccc2c(c1)Cc1ccccc1-2 [2-Nitrofluorene]
[1]; [7]
  Results (5-FU assay): Pos
[1]; [10]
  Lowest Positive Dose: 0.6 µg/mL
[1]; [8]
  Results (5-FU assay): Pos
[1]; [12]
  Lowest Positive Dose: 0.02 µg/mL
[2]; [6]
  LD50: >2 µg/mL
[2]; without S9 activation (−)
  LD50: >1 µg/mL

## O=Cc1ccccc1 [Benzaldehyde]
[1]; [7]
  Results (5-FU assay): Neg
[1]; [8]
  Results (5-FU assay): Neg
[2]; [6]
  LD50: >150 µg/mL
[2]; without S9 activation (−)
  LD50: >150 µg/mL

## CCC1(c2ccccc2)C(=O)NC(=O)NC1=O [Phenobarbital]
[1]; [7]
  Results (5-FU assay): Pos^w
[1]; [10]
  Lowest Positive Dose: 1500 µg/mL
[1]; [8]
  Results (5-FU assay): Pos^w
[1]; [12]
  Lowest Positive Dose: 2800 µg/mL
[2]; [6]
  LD50: >500 µg/mL
[2]; without S9 activation (−)
  LD50: >500 µg/mL
